Source: patent publication US6472348B1, “Pyridone derivatives and herbicides” (Kumiai Chemical Industry Co., Ltd., priority 1996, dated 2002)

How the values were obtained:
Type in all cases: in vivo
wheat (Tr) = experiment: Test Example 5: crop plant selectivity by upland field soil treatment (wheat), phytotoxicity; design: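 grade of crop injury; 5 = at least 90%; 4 = 70 to 90%; 3 = 50 to 70%; 2 = 30 to 50%; 1 = 10 to 30%; 0 = under 10%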; conditions: dose 6.3 g ai/10a, 21st day after application
Procedure: (§1) (Test on Crop Plant Selectivity by Upland Field Soil Treatment)
(§2) In a plastic pot (surface area: 600 cm^2) filled with sand, wheat (Tr), Diaitaria ciliaris (Di), green foxtail (Se), pale smartweed (Po), slender amaranth (Am), common lambsquarters (Ch) and China jute (Ab) were sown and covered with soil. […] The plants were then cultured in a green house, and the evaluation of the herbicidal effects and phytotoxicity was conducted on the 21st day after the application in accordance with the standards as identified in Table 47. Symbol—represents “not tested”.

soybean (Gl) = experiment: Test Example 6: crop plant selectivity by upland field soil treatment (soybean), phytotoxicity; design: scale not given here; conditions: dose 6.3 g ai/10a, 21st day after application
Procedure: as §1
(§3) In a plastic pot (surface area: 600 cm^2) filled with sand, soybean (Gl), Diaitaria ciliaris (Di), green foxtail (Se), Johnsongrass (So), pale smartweed (Po), slender amaranth (Am), common lambsquarters (Ch) and China jute (Ab) were sown and covered with soil. […] The plants were then cultured in a green house, and the evaluation of the herbicidal effects and phytotoxicity was conducted on the 21st day after the application in accordance with the standards as identified in Table 47. Symbol—represents “not tested”.

monochoria (Mo) = experiment: Test Example 1: herbicidal effects by paddy field soil treatment; conditions: 100 g of the active ingredient per 10 ares, 21st day after the application, index 0-5 of Table 47;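 also: grade of growth control; 5 = at least 90%; 4 = 70 to 90%; 3 = 50 to 70%; 2 = 30 to 50%; 1 = 10 to 30%; 0 = under 10%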
In short: (§4)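 Herbicidal effect was scored against a graded standard 21 days after treatment. Seeds were sown in puddled, leveled paddy soil flooded to 3 cm depth, and the active ingredient was applied at 100 g per 10 ares before greenhouse culture.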

barnyardgrass (Ec) [1] = experiment: as above; conditions: 100 g of the active ingredient per 10 ares, 21st day after the application, index 0-5 of Table 47
In short: as §4

bulrush (Sc) = experiment: as above; conditions: 100 g of the active ingredient per 10 ares, 21st day after the application, index 0-5 of Table 47;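 also: grade of growth control; 5 = at least 90%; 4 = 70 to 90%; 3 = 50 to 70%; 2 = 30 to 50%; 1 = 10 to 30%; 0 = under 10%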
In short: as §4

green foxtail (Se) [2] = experiment: Test Example 5: crop plant selectivity by upland field soil treatment (wheat), herbicidal effects; design: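 grade of growth control; 5 = at least 90%; 4 = 70 to 90%; 3 = 50 to 70%; 2 = 30 to 50%; 1 = 10 to 30%; 0 = under 10%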; conditions: dose 6.3 g ai/10a, 21st day after application
Procedure: as §1, §2

[3] = test system: common lambsquarters (Ch); experiment: as above; design: scale not given here; conditions: dose 6.3 g ai/10a, 21st day after application
Procedure: as §1, §2

pale smartweed (Po) [4] = experiment: as above; design: scale not given here; conditions: dose 6.3 g ai/10a, 21st day after application
Procedure: as §1, §2

China jute (Ab) [5] = experiment: as above; design: scale not given here; conditions: dose 6.3 g ai/10a, 21st day after application
Procedure: as §1, §2

slender amaranth (Am) [6] = experiment: as above; design: scale not given here; conditions: dose 6.3 g ai/10a, 21st day after application
Procedure: as §1, §2

green foxtail (Se) [7] = experiment: Test Example 6: crop plant selectivity by upland field soil treatment (soybean), herbicidal effects; design: scale not given here; conditions: dose 6.3 g ai/10a, 21st day after application
Procedure: as §1, §3

[8] = test system: common lambsquarters (Ch); experiment: as above; design: scale not given here; conditions: dose 6.3 g ai/10a, 21st day after application
Procedure: as §1, §3

pale smartweed (Po) [9] = experiment: as above; design: scale not given here; conditions: dose 6.3 g ai/10a, 21st day after application
Procedure: as §1, §3

China jute (Ab) [10] = experiment: as above; design: scale not given here; conditions: dose 6.3 g ai/10a, 21st day after application
Procedure: as §1, §3

slender amaranth (Am) [11] = experiment: as above; design: scale not given here; conditions: dose 6.3 g ai/10a, 21st day after application
Procedure: as §1, §3

[12] = test system: common lambsquarters (Ch); experiment: Test Example 2: herbicidal effects by upland field soil treatment; conditions: 100 g of the active ingredient per 10 ares, 21st day after the application, index 0-5 of Table 47;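 also: grade of growth control; 5 = at least 90%; 4 = 70 to 90%; 3 = 50 to 70%; 2 = 30 to 50%; 1 = 10 to 30%; 0 = under 10%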
Source text: (§5) (Test on Herbicidal Effects by Upland Field Soil Treatment)

Digitaria ciliaris (Di) = experiment: as above; conditions: 100 g of the active ingredient per 10 ares, 21st day after the application, index 0-5 of Table 47;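 also: grade of growth control; 5 = at least 90%; 4 = 70 to 90%; 3 = 50 to 70%; 2 = 30 to 50%; 1 = 10 to 30%; 0 = under 10%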
Source text: as §5

pale smartweed (Po) [13] = experiment: as above; conditions: 100 g of the active ingredient per 10 ares, 21st day after the application, index 0-5 of Table 47
Source text: as §5

barnyardgrass (Ec) [14] = experiment: as above; conditions: 100 g of the active ingredient per 10 ares, 21st day after the application, index 0-5 of Table 47
Source text: as §5

rice flatsedge (Ci) [15] = experiment: as above; conditions: 100 g of the active ingredient per 10 ares, 21st day after the application, index 0-5 of Table 47
Source text: as §5

slender amaranth (Am) [16] = experiment: as above; conditions: 100 g of the active ingredient per 10 ares, 21st day after the application, index 0-5 of Table 47
Source text: as §5

corn (Ze) = experiment: Test Example 7: crop plant selectivity by upland field soil treatment (corn), phytotoxicity; design: scale not given here; conditions: dose 6.3 g ai/10a, 21st day after application
Procedure: as §1
(§6) In a plastic pot (surface area: 600 cm^2) filled with sand, corn (Ze), green foxtail (Se), pale smartweed (Po), slender amaranth (Am), common lambsquarters (Ch) and China jute (Ab) were sown and covered with soil. […] The plants were then cultured in a green house, and the evaluation of the herbicidal effects and phytotoxicity was conducted on the 21st day after the application in accordance with the standards as identified in Table 47.

[17] = test system: common lambsquarters (Ch); experiment: Test Example 3: herbicidal effects by upland field foliage treatment; design: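 grade of growth control; 5 = at least 90%; 4 = 70 to 90%; 3 = 50 to 70%; 2 = 30 to 50%; 1 = 10 to 30%; 0 = under 10%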; conditions: 100 g of the active ingredient per 10 ares, evaluated on the 14th day after treatment
In short: (§7)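 Readout: visual herbicidal rating per defined standards, 14th day after treatment. Plants sown in sand (pot area 120 cm^2), soil-covered, greenhouse-cultured for 2 weeks prior to foliage application, then greenhouse-grown until scoring.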

Diaitaria ciliaris (Di) = experiment: as above; design: scale not given here; conditions: 100 g of the active ingredient per 10 ares, evaluated on the 14th day after treatment
In short: as §7

pale smartweed (Po) [18] = experiment: as above; design: scale not given here; conditions: 100 g of the active ingredient per 10 ares, evaluated on the 14th day after treatment
In short: as §7

barnyardgrass (Ec) [19] = experiment: as above; design: scale not given here; conditions: 100 g of the active ingredient per 10 ares, evaluated on the 14th day after treatment
In short: as §7

rice flatsedge (Ci) [20] = experiment: as above; design: scale not given here; conditions: 100 g of the active ingredient per 10 ares, evaluated on the 14th day after treatment
In short: as §7

slender amaranth (Am) [21] = experiment: as above; design: scale not given here; conditions: 100 g of the active ingredient per 10 ares, evaluated on the 14th day after treatment
In short: as §7

green foxtail (Se) [22] = experiment: Test Example 7: crop plant selectivity by upland field soil treatment (corn), herbicidal effects; design: scale not given here; conditions: dose 6.3 g ai/10a, 21st day after application
Procedure: as §1, §6

[23] = test system: common lambsquarters (Ch); experiment: as above; design: scale not given here; conditions: dose 6.3 g ai/10a, 21st day after application
Procedure: as §1, §6

pale smartweed (Po) [24] = experiment: as above; design: scale not given here; conditions: dose 6.3 g ai/10a, 21st day after application
Procedure: as §1, §6

China jute (Ab) [25] = experiment: as above; design: scale not given here; conditions: dose 6.3 g ai/10a, 21st day after application
Procedure: as §1, §6

slender amaranth (Am) [26] = experiment: as above; design: scale not given here; conditions: dose 6.3 g ai/10a, 21st day after application
Procedure: as §1, §6

green foxtail (Se) [27] = experiment: Test Example 4: crop plant selectivity by upland field soil treatment (cotton), herbicidal effects; design: scale not given here; conditions: dose 6.3 g ai/10 a, evaluated 21st day after application
Procedure: as §1
(§8) In a plastic pot (surface area: 600 cm^2) filled with sand, cotton (Go), Diaitaria ciliaris (Di), green foxtail (Se), pale smartweed (Po), slender amaranth (Am), common lambsquarters (Ch) and China jute (Ab) were sown and covered with soil. […] The plants were then cultured in a green house, and the evaluation of the herbicidal effects and phytotoxicity was conducted on the 21st day after the application in accordance with the standards as identified in Table 47. Symbol—represents “not tested”.

[28] = test system: common lambsquarters (Ch); experiment: as above; design: scale not given here; conditions: dose 6.3 g ai/10 a, evaluated 21st day after application
Procedure: as §1, §8

pale smartweed (Po) [29] = experiment: as above; design: scale not given here; conditions: dose 6.3 g ai/10 a, evaluated 21st day after application
Procedure: as §1, §8

China jute (Ab) [30] = experiment: as above; design: scale not given here; conditions: dose 6.3 g ai/10 a, evaluated 21st day after application
Procedure: as §1, §8

slender amaranth (Am) [31] = experiment: as above; design: scale not given here; conditions: dose 6.3 g ai/10 a, evaluated 21st day after application
Procedure: as §1, §8

cotton (Go) = experiment: Test Example 4: crop plant selectivity by upland field soil treatment (cotton), phytotoxicity; design: scale not given here; conditions: dose 6.3 g ai/10 a, evaluated 21st day after application
Procedure: as §1, §8

Compound: Cn1c(C(F)(F)F)ccc(-c2cc(Br)c(Cl)cc2F)c1=O [1-138]
- Phytotoxicity Tr (wheat (Tr)): 1
- Phytotoxicity Gl (soybean (Gl)): 2
- Herbicidal effects Mo (monochoria (Mo)): 5
- Herbicidal effects Ec (barnyardgrass (Ec) [1]): 5
- Herbicidal effects Sc (bulrush (Sc)): 5
- Herbicidal effects Se (green foxtail (Se) [2]): 5
- Herbicidal effects Ch [3]: 5
- Herbicidal effects Po (pale smartweed (Po) [4]): 5
- Herbicidal effects Ab (China jute (Ab) [5]): 4
- Herbicidal effects Am (slender amaranth (Am) [6]): 5
- Herbicidal effects Se (green foxtail (Se) [7]): 5
- Herbicidal effects Ch [8]: 5
- Herbicidal effects Po (pale smartweed (Po) [9]): 5
- Herbicidal effects Ab (China jute (Ab) [10]): 4
- Herbicidal effects Am (slender amaranth (Am) [11]): 5
- Herbicidal effects Ch [12]: 5
- Herbicidal effects Di (Digitaria ciliaris (Di)): 5
- Herbicidal effects Po (pale smartweed (Po) [13]): 5
- Herbicidal effects Ec (barnyardgrass (Ec) [14]): 5
- Herbicidal effects Ci (rice flatsedge (Ci) [15]): 5
- Herbicidal effects Am (slender amaranth (Am) [16]): 5
- Phytotoxicity Ze (corn (Ze)): 2
- Herbicidal effects Ch [17]: 5
- Herbicidal effects Di (Diaitaria ciliaris (Di)): 5
- Herbicidal effects Po (pale smartweed (Po) [18]): 5
- Herbicidal effects Ec (barnyardgrass (Ec) [19]): 5
- Herbicidal effects Ci (rice flatsedge (Ci) [20]): 5
- Herbicidal effects Am (slender amaranth (Am) [21]): 5
- Herbicidal effects Se (green foxtail (Se) [22]): 5
- Herbicidal effects Ch [23]: 5
- Herbicidal effects Po (pale smartweed (Po) [24]): 5
- Herbicidal effects Ab (China jute (Ab) [25]): 4
- Herbicidal effects Am (slender amaranth (Am) [26]): 5
- Herbicidal effects Se (green foxtail (Se) [27]): 5
- Herbicidal effects Ch [28]: 5
- Herbicidal effects Po (pale smartweed (Po) [29]): 5
- Herbicidal effects Ab (China jute (Ab) [30]): 4
- Herbicidal effects Am (slender amaranth (Am) [31]): 5
- Phytotoxicity Go (cotton (Go)): 1
